Each block holds one molecule with its values, some of them ahead of it.
Assays:
[1] = test system: kinase/NanoLuc® (Nluc) fusion proteins; assay: NanoBRET relative BRET signal of kinase tracers against a panel of kinase/NanoLuc fusions in live cells; format: cell-based; conditions: HEK293 cells, 2 hours, 0.5 uM CC-1804, CC-1852, or 1 uM CC-1294; compared to CC-1294
Procedure: (§1) FIG. 1A-B. Summary of the BRET results generated with kinase tracers against a large panel of kinase/NanoLuc® fusions expressed in live cells. Assay signals were assessed by taking the ratio of BRET in the presence of tracer/no tracer control. Assays are categorized as follows: >3-fold signal (green cells), 2-3 fold signal (yellow cells), and 1.5-2 fold signal (red cells).
as §1, with “1C-F. Individual BRET signals observed between” for “1A-B. Summary of”, “broad-spectrum” for “BRET results generated with”, “and individual” for “against a large panel of”
Experiments were conducted during development of embodiments herein to derive a comprehensive analysis of intracellular kinase target engagement using NanoBRET™ tracers derived from CC-1294 versus NanoBRET™ tracers derived from novel inhibitors. […] NanoBRET was measured on a Glomax® Discover plate reader. To determine relative BRET signals, BRET arising from the tracer was divided by BRET in the absence of tracer.

kinase/Nluc fusions [2] = test system: kinase/Nluc fusions
Procedure: NanoBRET™ assays were run by competitive displacement of NanoBRET™ tracers in living HEK293 cells.
Values were measured by competitive displacement of NanoBRET™ tracers in living cells.
In wells of 96-well plates, 20,000 HEK293 cells per well were transfected with kinase/Nluc fusions expressed from pFN31K and pFN32K plasmids. Transfections were performed using 3:1 FuGENE HD:plasmid ratios. 24 hours post transfection, cells were treated for 2 hours in the presence of tracer and varying concentration of control inhibitor indicated. After incubation, NanoBRET™-TE substrate/inhibitor solution was added to a final concentration of 1×, and BRET was measured on a Glomax® Discover plate reader.

kinase/Nluc fusions [3] = assay: NanoBRET fractional occupancy by competitive displacement of NanoBRET tracers in living HEK293 cells; format: cell-based; conditions: of the 200 kinases evaluated, 300 nM test compound, 2 hours, CC-1861 vs CTx (FIG. 5)
Procedure: Transfections were performed using 3:1 FuGENE HD:plasmid ratios.

SMILES: NC(=O)c1ccccc1Nc1nc(Nc2cccc(N3CCNCC3)c2)ncc1Cl [CC-1852]
target engagement/kinase profiling breadth (relative BRET signal, tracer / no tracer) [1]: unexpectedly broad spectrum target engagement/kinase profiling

inhibitor potency compared to CTx (kinase/Nluc fusions [2]; HEK293 cells, 2 hours, tracer plus varying concentration of inhibitor (FIG. 7)): increased inhibitor potency
SMILES: NC(=O)c1ccccc1Nc1nc(Nc2ccc(N3CCNCC3)cc2)ncc1Cl [CC-1861, 2-((5-chloro-2-((4-(piperazin-1-yl)phenyl)amino)pyrimidin-4-yl)amino)benzamide]
intracellular affinity compared to CTx-0294885 (kinase/Nluc fusions [2]; living HEK293 cells, four targets tested (FIG. 7)): stronger than CTx-0294885 for three of the four targets tested

SMILES: CNC(=O)c1ccccc1Nc1nc(Nc2ccc(N3CCNCC3)cc2)ncc1Cl [CTx-0294885, 2-((5-chloro-2-((4-(piperazin-1-yl)phenyl)amino)pyrimidin-4-yl)amino)-N-methylbenzamide]
number of kinases that preferred the compound over the other (kinase/Nluc fusions [3]): 4

Source: patent publication US12078634B2, “Broad spectrum kinase binding agents” (Promega Corporation, priority 2018, dated 2024)
